Experimental data taken from patent US8802597B2, “Herbicidal pyrimidines” (E I du Pont de Nemours and Company, priority 2003, dated 2014).

Legend:
Test in all cases: Test G pre/postemergence
Format in all cases: in vivo
[1] = test system: Surinam grass (Brachiaria decumbens)
How it was run: (§1)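 Pre- and postemergence greenhouse test; compound in non-phytotoxic solvent/surfactant mix. Post timing: 2–18 cm plants, 1- to 4-leaf. Visual rating vs controls at 12–21 d, 0 (no effect) to 100 (complete control).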

[2] = test system: itchgrass (Rottboellia cochinchinensis)
How it was run: as §1

[3] = test system: common chickweed (Stellaria media); details: Preemergence, scale 0-100
How it was run: as §1

[4] = test system: johnsongrass (Sorghum halepense)
How it was run: as §1

[5] = test system: southern sandbur (Cenchrus echinatus)
How it was run: as §1

[6] = test system: quackgrass (Elytrigia repens)
How it was run: as §1

[7] = test system: common mallow (Malva sylvestris)
How it was run: as §1

[8] = test system: pitted morningglory (Ipomoea lacunosa)
How it was run: as §1

[9] = test system: bermudagrass (Cynodon dactylon)
How it was run: as §1

[10] = test system: dallisgrass (Paspalum dilatatum)
How it was run: as §1

[11] = test system: annual bluegrass (Poa annua)
How it was run: as §1

[12] = test system: green foxtail (Setaria viridis)
How it was run: as §1

[13] = test system: Italian ryegrass (Lolium multiflorum)
How it was run: as §1

[14] = test system: black mustard (Brassica nigra)
How it was run: as §1

[15] = Postemergence, 8 g ai/ha, scale 0 to 100
[16] = Postemergence, 16 g ai/ha, scale 0 to 100
[17] = Postemergence, 31 g ai/ha, scale 0 to 100
[18] = Postemergence, 62 g ai/ha, scale 0 to 100
[19] = Preemergence, 8 g ai/ha, scale 0-100
[20] = Preemergence, 16 g ai/ha, scale 0-100
[21] = Preemergence, 31 g ai/ha, scale 0-100
[22] = Preemergence, 62 g ai/ha, scale 0-100

Structure (SMILES): CCOC(=O)c1nc(-c2ccc(Cl)cc2)nc(N)c1Cl [Compound 64, ethyl 6-amino-5-chloro-2-(4-chlorophenyl)-4-pyrimidinecarboxylate]
- Plant response rating, Surinam Grass [1, 15]: 0
- Plant response rating, Surinam Grass [1, 16]: 0
- Plant response rating, Surinam Grass [1, 17]: 0
- Plant response rating, Surinam Grass [1, 18]: 10
- Plant response rating, Surinam Grass [1, 19]: 0
- Plant response rating, Surinam Grass [1, 20]: 0
- Plant response rating, Surinam Grass [1, 21]: 0
- Plant response rating, Surinam Grass [1, 22]: 0
- Plant response rating, Itchgrass [2, 15]: 0
- Plant response rating, Itchgrass [2, 16]: 0
- Plant response rating, Itchgrass [2, 17]: 0
- Plant response rating, Itchgrass [2, 18]: 60
- Plant response rating, Itchgrass [2, 19]: 0
- Plant response rating, Itchgrass [2, 20]: 0
- Plant response rating, Itchgrass [2, 21]: 0
- Plant response rating, Itchgrass [2, 22]: 20
- Plant response rating, Chickweed ([3]; 8 g ai/ha): 0
- Plant response rating, Chickweed ([3]; 31 g ai/ha): 0
- Plant response rating, Chickweed ([3]; 62 g ai/ha): 0
- Plant response rating, Johnsongrass [4, 15]: 0
- Plant response rating, Johnsongrass [4, 16]: 0
- Plant response rating, Johnsongrass [4, 17]: 0
- Plant response rating, Johnsongrass [4, 18]: 0
- Plant response rating, Johnsongrass [4, 19]: 0
- Plant response rating, Johnsongrass [4, 20]: 0
- Plant response rating, Johnsongrass [4, 21]: 0
- Plant response rating, Johnsongrass [4, 22]: 0
- Plant response rating, Sandbur [5, 15]: 0
- Plant response rating, Sandbur [5, 16]: 0
- Plant response rating, Sandbur [5, 17]: 20
- Plant response rating, Sandbur [5, 18]: 20
- Plant response rating, Sandbur [5, 19]: 0
- Plant response rating, Sandbur [5, 20]: 0
- Plant response rating, Sandbur [5, 21]: 0
- Plant response rating, Sandbur [5, 22]: 0
- Plant response rating, Quackgrass [6, 15]: 0
- Plant response rating, Quackgrass [6, 16]: 20
- Plant response rating, Quackgrass [6, 17]: 20
- Plant response rating, Quackgrass [6, 18]: 35
- Plant response rating, Quackgrass [6, 19]: 0
- Plant response rating, Quackgrass [6, 20]: 0
- Plant response rating, Quackgrass [6, 21]: 0
- Plant response rating, Quackgrass [6, 22]: 0
- Plant response rating, Mallow [7, 15]: 65
- Plant response rating, Mallow [7, 16]: 80
- Plant response rating, Mallow [7, 17]: 90
- Plant response rating, Mallow [7, 18]: 90
- Plant response rating, Mallow [7, 19]: 0
- Plant response rating, Mallow [7, 21]: 0
- Plant response rating, Mallow [7, 22]: 0
- Plant response rating, Morningglory [8, 15]: 0
- Plant response rating, Morningglory [8, 16]: 0
- Plant response rating, Morningglory [8, 17]: 20
- Plant response rating, Morningglory [8, 18]: 65
- Plant response rating, Morningglory [8, 19]: 0
- Plant response rating, Morningglory [8, 20]: 0
- Plant response rating, Morningglory [8, 21]: 0
- Plant response rating, Morningglory [8, 22]: 0
- Plant response rating, Bermudagrass [9, 15]: 0
- Plant response rating, Bermudagrass [9, 16]: 20
- Plant response rating, Bermudagrass [9, 17]: 35
- Plant response rating, Bermudagrass [9, 18]: 35
- Plant response rating, Bermudagrass [9, 19]: 0
- Plant response rating, Bermudagrass [9, 20]: 0
- Plant response rating, Bermudagrass [9, 21]: 0
- Plant response rating, Bermudagrass [9, 22]: 0
- Plant response rating, Dallisgrass [10, 15]: 0
- Plant response rating, Dallisgrass [10, 16]: 0
- Plant response rating, Dallisgrass [10, 17]: 0
- Plant response rating, Dallisgrass [10, 18]: 20
- Plant response rating, Dallisgrass [10, 19]: 0
- Plant response rating, Dallisgrass [10, 20]: 0
- Plant response rating, Dallisgrass [10, 21]: 0
- Plant response rating, Dallisgrass [10, 22]: 0
- Plant response rating, Bluegrass [11, 15]: 0
- Plant response rating, Bluegrass [11, 16]: 0
- Plant response rating, Bluegrass [11, 17]: 0
- Plant response rating, Bluegrass [11, 18]: 0
- Plant response rating, Bluegrass [11, 19]: 0
- Plant response rating, Bluegrass [11, 20]: 0
- Plant response rating, Bluegrass [11, 21]: 0
- Plant response rating, Bluegrass [11, 22]: 0
- Plant response rating, Foxtail, Green [12, 15]: 0
- Plant response rating, Foxtail, Green [12, 16]: 0
- Plant response rating, Foxtail, Green [12, 17]: 0
- Plant response rating, Foxtail, Green [12, 18]: 0
- Plant response rating, Foxtail, Green [12, 19]: 0
- Plant response rating, Foxtail, Green [12, 20]: 0
- Plant response rating, Foxtail, Green [12, 21]: 0
- Plant response rating, Foxtail, Green [12, 22]: 0
- Plant response rating, Ryegrass, Italian [13, 15]: 0
- Plant response rating, Ryegrass, Italian [13, 16]: 10
- Plant response rating, Ryegrass, Italian [13, 17]: 20
- Plant response rating, Ryegrass, Italian [13, 18]: 35
- Plant response rating, Ryegrass, Italian [13, 19]: 0
- Plant response rating, Ryegrass, Italian [13, 20]: 0
- Plant response rating, Ryegrass, Italian [13, 21]: 0
- Plant response rating, Ryegrass, Italian [13, 22]: 0
- Plant response rating, Black Mustard [14, 15]: 0
- Plant response rating, Black Mustard [14, 16]: 0
- Plant response rating, Black Mustard [14, 17]: 0
- Plant response rating, Black Mustard [14, 18]: 10
- Plant response rating, Black Mustard [14, 19]: 0
- Plant response rating, Black Mustard [14, 20]: 0
- Plant response rating, Black Mustard [14, 21]: 20
- Plant response rating, Black Mustard [14, 22]: 35
